Assay results published in patent US20250186379A1, “METHODS AND AGENTS FOR DECREASING INSULIN RESISTANCE” (Whitehead Institute for Biomedical Research, priority 2021, published 2025).
“Also recorded” adds a separate entry of the source.

Tests used:
[1] = system: reactive oxygen species (ROS); test: Quantification of ROS using a ROS-sensitive dye in HepG2 cells; type: cell-based, human
Experimental: Cells expressing endogenous IR tagged with GFP were treated with ROS dye (Abcam, ab186029) following the manufacturer's instructions. […] Cells were incubated at 37° C. with 5% CO2 in a humidified incubator for 30 min. Cells were imaged at 37° C. using the LSM880 Microscope with Airyscan detector with 63×objective and Zen Black software (ZEISS) at the W.M. Keck Microscopy Facility, MIT. Images were then processed using Fiji/ImageJ v2.1.0/153c. Quantification of the ROS dye fluorescence intensity per cell was performed using Fiji. Using the polygon selection tool on Fiji/ImageJ v2.1.0/153c, a polygon was drawn around a cell outline, which was identified by looking at the IR-GFP channel. The average ROS dye fluorescence intensity in the polygon (=in the cell) was determined using the measure tool on Fiji/ImageJ v2.1.0/153c. […] Cells were incubated at 37° C. with 5% CO2 in a humidified incubator for 30 minutes. Cells were imaged at 37° C. using the LSM880 Microscope with Airyscan detector with 63× objective and Zen Black software (ZEISS) at the W.M. Keck Microscopy Facility, MIT. Images were then processed using Fiji/ImageJ v2.1.0/153c. Quantification of the ROS dye fluorescence intensity per cell was performed using Fiji. […] The average ROS dye fluorescence intensity in the polygon (=in the cell) was determined using the measure tool on Fiji/ImageJ v2.1.0/153c.

[2] = system: transcriptional condensates at SMAD7; test: IR-GFP and SMAD7 intronic RNA FISH colocalization in HepG2 cells; type: cell-based, human
IR condensates = test: Immunofluorescence for IR in human liver spheroids (primary human hepatocytes); type: cell-based; settings: 3 nM insulin 10 min
Experimental: For human liver spheroid experiments, primary human hepatocytes from a donor (BioIVT; lot #SMC) were used. Cells were thawed in Cryopreserved Hepatocyte Recovery Media (CHRM, ThermoFisher), spun down at 100 g for 8 min, and resuspended in seeding medium (William's E with 5.5 mM glucose, 2 mM GlutaMax, 15 mM HEPES, 5% FBS, 1% Pen/Strep, 100 nM hydrocortisone, and insulin 200 pM or 800 pM corresponding to the proper experimental group). Spheroids were formed using custom alginate microwells. In brief, 120,000 cells were seeded per well and spun at 50 g for 2 min to seed microwells, and cultured in a volume of 300 uL seeding medium. After 24 hours, cells were switched to maintenance media for the remainder of the experiment. This maintenance media was composed of William's E plus 6.25 μg/ml transferrin, 6.25 ng/ml selenium, 0.125% fatty acid-free BSA, 20 μM linoleic acid, 5.5 mM glucose, 2 mM GlutaMax, 15 mM HEPES, 0.5% Pen/Strep, and 100 nM hydrocortisone. Insulin was supplemented with concentrations adjusted to mimic healthy and disease-inducing states, either 200 pM for physiological or 800 pM for pathologic insulin levels. Media was exchanged every 48 hours throughout the experiment. […]

TNFα
production of ROS ([1]; HepG2 cells (FIG. 27C), also refs 19,77-79): excessive production of ROS

insulin: insulin (Sigma Aldrich, I9278-5ML) used for acute stimulation and chronic physiological or pathological exposure
levels of IR in transcriptional condensates at SMAD7 ([2]; insulin resistant cells, acute insulin stimulation): did not increase the levels of IR in transcriptional condensates; also recorded: did not cause increased levels of IR in transcriptional condensates
colocalization of IR-containing condensates with SMAD7 nascent RNA ([2]; insulin sensitive cells, 0 nM versus 3 nM insulin): increased colocalization
IR signal intensity in cytoplasmic and nuclear condensates/puncta (IR condensates; insulin sensitive human liver spheroids): leads to an increase in IR signal intensity in cytoplasmic and nuclear condensates; also recorded: produced an increase in IR signal intensity in cytoplasmic and nuclear puncta

CN(C)C(=N)N=C(N)N [metformin, reference compound]
IR levels in SMAD7 transcriptional condensates ([2]; metformin-treated insulin resistant cells, 3 nM insulin 5 min (FIG. 5D)): increased
ROS levels (ROS-sensitive dye) ([1]; insulin resistant HepG2 cells, 12.5 μM metformin): reduced ROS levels to those found in insulin sensitive cells; also recorded: reduced ROS levels to those found in insulin-sensitive cells
IR signal in cytoplasmic and nuclear condensates/puncta (IR condensates; insulin resistant human liver spheroids + metformin): partially rescued
